Measurements as given in PubChem BioAssay (NCI).
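Five concentrations, 48 hours, 96-well plates. TGI: total growth inhibition.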

Assays:
Experiment in all cases: NCI anticancer screen, dose series, 48 h
MDA-MB-231 breast = tested on: MDA-MB-231 breast
SK-OV-3 ovarian = tested on: SK-OV-3 ovarian
ACHN renal = tested on: ACHN renal
SK-MEL-28 melanoma = tested on: SK-MEL-28 melanoma
KM12 colon = tested on: KM12 colon
MDA-N = tested on: MDA-N
SW-620 colon = tested on: SW-620 colon
COLO 205 colon = tested on: COLO 205 colon
OVCAR-4 ovarian = tested on: OVCAR-4 ovarian
NCI-H460 lung = tested on: NCI-H460 lung
A498 renal = tested on: A498 renal
CCRF-CEM leukemia = tested on: CCRF-CEM leukemia
HL-60(TB) leukemia = tested on: HL-60(TB) leukemia
OVCAR-3 ovarian = tested on: OVCAR-3 ovarian
HCC-2998 colon = tested on: HCC-2998 colon
DU-145 prostate = tested on: DU-145 prostate
TK-10 renal = tested on: TK-10 renal
LOX IMVI melanoma = tested on: LOX IMVI melanoma
MOLT-4 leukemia = tested on: MOLT-4 leukemia

SMILES | TGI (MDA-MB-231 breast) [µM] | TGI (SK-OV-3 ovarian) [µM] | TGI (ACHN renal) [µM] | TGI (SK-MEL-28 melanoma) [µM] | TGI (KM12 colon) [µM] | TGI (MDA-N) [µM] | TGI (SW-620 colon) [µM] | TGI (COLO 205 colon) [µM] | TGI (OVCAR-4 ovarian) [µM] | TGI (NCI-H460 lung) [µM] | TGI (A498 renal) [µM] | TGI (CCRF-CEM leukemia) [µM] | TGI (HL-60(TB) leukemia) [µM] | TGI (OVCAR-3 ovarian) [µM] | TGI (HCC-2998 colon) [µM] | TGI (DU-145 prostate) [µM] | TGI (TK-10 renal) [µM] | TGI (LOX IMVI melanoma) [µM] | TGI (MOLT-4 leukemia) [µM]
O=C(c1ccc(-c2ccccc2)cc1)N(Cc1cccnc1)C(=S)N(Cc1cccnc1)C(=O)c1ccc(-c2ccccc2)cc1 | > 100 | > 100 | > 100 | > 100 | > 100 | > 100 | > 100 | > 100 | > 100 | > 100 | > 100 | > 100 | > 100 | > 100 | > 100 | > 100 | > 100 | > 100 | 
O=C1OCCC12CN(Cc1ccccc1)N=N2 (configuration not stated) | > 100 | > 100 | > 100 | > 100 | > 100 | > 100 | > 100 | > 100 | > 100 | > 100 | > 100 |  |  | > 100 | > 100 | > 100 | > 100 |  | > 100
CCOP(=O)(OCC)c1cc2cc(O)ccc2oc1=O | > 100 | > 100 | > 100 | > 100 | > 100 | > 100 | > 100 | > 100 | > 100 | > 100 | > 100 | > 100 | > 100 | > 100 | > 100 | > 100 | > 100 | > 100 | 
CC1(C)[C@H]2CC[C@](C)(C2)[C@]1(S)Cc1ccccn1 | > 100 | 93.6 | > 100 | > 100 | > 100 | > 100 | > 100 | > 100 |  | > 100 | > 100 | 24.8 | 50.9 | 73 | 41.5 | > 100 | > 100 | 36.8 | 54
NNC(=O)CC(=O)Nc1ccccc1Cl | > 100 | > 100 | > 100 | > 100 | > 100 | > 100 | > 100 | > 100 | > 100 | > 100 | > 100 | > 100 | > 100 | > 100 |  | > 100 | > 100 | > 100 | > 100
CC1(C)CC(=O)c2c([nH]c(=S)c(C#N)c2-c2ccc(Br)cc2)C1 | > 100 | > 100 | > 100 | > 100 |  | > 100 | > 100 |  | > 100 | > 100 | > 100 | > 100 | > 100 | > 100 | > 100 | > 100 | > 100 | > 100 | 
CC(=O)OC(=C(C#N)C#N)c1nccnc1C(=O)O | > 100 | > 100 | > 100 | > 100 | > 100 | > 100 | > 100 | > 100 | > 100 | > 100 | > 100 |  | > 100 | > 100 | > 100 | > 100 |  | > 100 | > 100
O=C(CC(C(=O)c1cccs1)c1ccsc1)c1ccc(Cl)cc1 (configuration not stated) | > 100 | > 100 | > 100 | > 100 | > 100 | > 100 | > 100 | > 100 | > 100 | > 100 | > 100 | > 100 | > 100 |  | > 100 | > 100 | > 100 | > 100 | > 100
N=C1/C(=C/c2ccco2)C(=O)N=C2SC=NN12 | > 100 | > 100 | > 100 | > 100 | > 100 | > 100 | > 100 | > 100 | > 100 | > 100 |  | > 100 | > 100 | > 100 | > 100 | > 100 | > 100 | > 100 | > 100
COc1cccc([C@@H]2C/C(=N\NC(=O)C(=O)N[C@@H](C)c3ccccc3)c3cc4c(cc3N2)OCO4)c1 | > 100 | > 100 | > 100 | > 100 | > 100 | 28.4 | > 100 | 68.8 | > 100 |  | > 100 | > 100 |  | > 100 | > 100 | > 100 | > 100 | > 100 | > 100
Cc1ccc2c(=O)cc(-c3cc4ccccc4s3)[nH]c2n1 | > 100 | > 100 | > 100 | > 100 | > 100 | > 100 | > 100 | > 100 | > 100 | > 100 |  | > 100 | > 100 | > 100 | > 100 | > 100 | > 100 | > 100 | > 100
CCCCCCCCCCCCCCCCC(=O)NCC(=O)NCC(=O)NC(Cc1ccccc1)C(=O)Oc1ccc([N+](=O)[O-])cc1 (configuration not stated) | 38.9 |  | > 100 | 30.3 | 48.8 | > 100 | 37.2 | 35.8 | > 100 | 38.6 | > 100 | 44.9 | > 100 | > 100 | 37.3 | > 100 | > 100 | 38.7 | 38.7
COC(=O)c1c(O)ccc2c1c1cc3ccccc3c(O)c1n2Cc1ccccc1Cl | > 100 | 48.6 | 95.7 | 46.4 | 61.8 | 61.8 |  | 30.4 | 51.1 | 78.4 | > 100 | > 100 | 74.9 | 39.8 | 47.7 | > 100 | > 100 |  | > 100
